Each structure is given as a SMILES string.

Series [1] in a line: Vapour pressure.
The nature of series [2]: log Kow (octanol/water partition coefficient). The series is classed as physicochemical. Conditions: for Log Kow: base-10 logarithm of ratio of equilibrium concentrations in octanol and water. The source says:
Preferably the system is an oil reservoir and the property is the residual oil saturation. Thus, preferably the use is of a partitioning tracer for determining residual oil saturation, the partitioning tracer comprising a sulfone compound having a log Kow value in the range −0.5 to 3. Preferably the log Kow value is in the range 0.5 to 1.5. Those ranges may give optimum partitioning into the oil in the formation. If the log Kow value is too high, the partitioning tracer will spend too long in the oil and will not be released from the well in a reasonable time, or even at all. If the log Kow value is too low, the partitioning tracer will largely remain in the water phase and there will not be a sufficient differential between the release of the conservative and partitioning tracers. The log Kow value is the base-10 logarithm of the ratio of the equilibrium concentrations of the tracer in octanol and water and can be determined for example, by the method described in “Experimental Aspects of Partitioning Tracer Tests for Residual Oil Saturation Determination with FIA-based Laboratory Equipment, SPE Reservoir Engineering, May 1990, pages 239-244”.
The log Kow values are either experimentally determined or estimated using KOWWIN v1.68.

Turning to `OC(C(F)(F)F)C(F)(F)F` [1,1,1,3,3,3-Hexafluoro-2-propanol, 1,1,1,3,3,3-hexafluoro-2-propanol], the “Vapour Pressure” value in series [1] amounted to 156 mm Hg. The “Log Kow” value in series [2] is 1.66. As to `OCc1ccc(Cl)cc1` [4-Chlorobenzyl alcohol, 4-chlorobenzyl alcohol], the “Vapour Pressure” value in series [1] worked out at 0.00268 mm Hg. In addition, in series [2], the “Log Kow” value is reported as 1.72. In the case of `CS(=O)(=O)c1ccc(Cl)cc1` [4-Chlorophenyl methyl sulfone, 4-chlorophenyl methyl sulfone], in series [2], the “Log Kow” value turned out to be 1.21.

In the case of `CS(C)(=O)=O` [dimethylsulfone], the “log Kow value” in series [2] is given as −1.11.

Source of the values: patent US11098238B2, “Tracer and method” (JOHNSON MATTHEY PUBLIC LIMITED COMPANY, priority 2016, dated 2021).
